Experimental data: patent US12409140B2, “Therapeutic formulations and uses thereof” (Bionomics Limited, priority 2019, dated 2025)

Legend:
[1] = Biorelevant dissolution testing (solubility/precipitation): SGF (0.1N HCl) then transfer to SIF (FaSSIF); assay type: physicochemical; details: for Total Drug CmaxGB: SGF (0.1N HCl, pH=1), 0-30 min, equivalent to 2.0 mg/mL of compound I in 50 mL; for Total Drug AUC 35-210 FaSSIF / Total Drug C210: SIF/FaSSIF; for Total Drug AUC 35-210 FaSSIF: 35-210 min; for Total Drug C210: 210 min; for Total Drug CmaxFaSSIF: after transfer at 30 min into 50 mL SIF (2.24 mg/mL FaSSIF in 100 mM PBS)
Protocol: Appropriate amounts (equivalent to 2.0 mg/mL of compound I) of composition of invention were added to 50 mL of 0.1N HCl and stirred. The aliquots of mixture were withdrawn at 10 and 25 minutes, vortexed for 10 seconds and the dissolved amount was measure by analytical HPLC using external reference standards at a wavelength of 240 nm. After 30 minutes, the entire content of sample from SGF incubation was transferred into 50 mL of SIF media with stirring, and the dissolved amount was measured at 35, 50, 75, 120 and 210 minutes.

[2] = Solubility of Compound I (preformulation, stated in words); assay type: physicochemical; details: b16: in vitro, crystalline form
[3] = Permeability of Compound I (stated in words); assay type: in vitro ADME
[4] = Oral exposure of suspension formulations (preformulation studies); assay type: in vivo; details: increased with 0.5% HPMC, depends on fed/fasted state

Increase in AUC over API AUC ([1]; AUC 35-210 FaSSIF relative to BNC210 API)	Total Drug CmaxGB [1] [μgA/mL]	Total Drug AUC 35-210 FaSSIF [1] [min * μgA/mL]	Total Drug C210 [1] [μgA/mL]	Total Drug CmaxFaSSIF [1] [μgA/mL]	Solubility ([2]; listed as Compound I)	Solubility ([2]; listed as compound I)	Permeability [3]	Oral exposure [4]	SMILES
2	158	8700	60	68	–	–	–	–	CCn1cc(C(=O)N2CCOCC2)c(=O)c2cc(NC3Cc4ccccc4C3)cnc21 [100% BNC210 SD]
–	88	4300	29	32	poorly soluble	poor in vitro solubility	moderate permeability	low oral exposure	CCn1cc(C(=O)N2CCOCC2)c(=O)c2cc(NC3Cc4ccccc4C3)cnc21 [BNC210 API]
